Experimental data: the supplement of paper PMC11061612

What was measured:
IMR-5 (Neuroblastoma) = test: combination Emax (second highest fraction inhibited in the dose matrix, 72 h); higher = more inhibition; extreme values may be limits of the assay
How it was run: (§1)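 Cell lines grown in DMEM/F12 or RPMI with 10% FBS were plated in 1536-well plates and held 24 hours at 37°C, 5% CO2 before 72 hours of exposure to two-drug dose matrices, with DMSO typically at 0.2%. CellTiter-Glo 2.0 luminescence gave viability, which was converted to inhibition. Vehicle wells were set to 0 and blank wells to 1. Combination Emax is the second-highest inhibition in the matrix, and Bliss excess is the observed combination effect minus the expected EA + EB − EA·EB, where EA and EB are the single-agent effects.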

[1] = tested on: KP-2 (Pancreatic Carcinoma); test: as above
How it was run: as §1

[2] = tested on: EBC-1 (Squamous Cell Lung Carcinoma); test: as above
How it was run: as §1

[3] = tested on: KYSE-50 (Esophageal Squamous Cell Carcinoma); test: as above
How it was run: as §1

[4] = tested on: HuP-T3 (Pancreatic Carcinoma); test: as above
How it was run: as §1

GI-1 (Glioblastoma) [5] = test: as above
How it was run: as §1

[6] = tested on: KLE (Endometrial Carcinoma); test: as above
How it was run: as §1

[7] = tested on: PFSK-1 (Other Solid Carcinomas); test: as above
How it was run: as §1

[8] = tested on: VMRC-LCD (Lung Adenocarcinoma); test: as above
How it was run: as §1

[9] = tested on: PF-382 (T-Lymphoblastic Leukemia); test: as above
How it was run: as §1

[10] = tested on: OCUM-1 (Gastric Carcinoma); test: as above
How it was run: as §1

EW-13 (Ewing's Sarcoma) [11] = test: as above
How it was run: as §1

[12] = tested on: H-EMC-SS (Chondrosarcoma); test: as above
How it was run: as §1

[13] = tested on: ASH-3 (Thyroid Gland Carcinoma); test: Bliss excess, mean over the matrix (fraction); higher = more synergy
How it was run: as §1

NB7 (Neuroblastoma) = test: as above
How it was run: as §1

[14] = tested on: NCI-N87 (Gastric Carcinoma); test: as above
How it was run: as §1

GI-1 (Glioblastoma) [15] = test: as above
How it was run: as §1

[16] = tested on: LC4-1 (B-Lymphoblastic Leukemia); test: as above
How it was run: as §1

[17] = tested on: PFSK-1 (Other Solid Carcinomas); test: as above
How it was run: as §1

EW-13 (Ewing's Sarcoma) [18] = test: as above
How it was run: as §1
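Wherever Bliss excess, mean over the matrix is given: after 72 h of two-drug dosing.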

## CN(CCO)CC[C@H](CSc1ccccc1)Nc1ccc(S(=O)(=O)NC(=O)c2ccc(N3CCC([C@@H](O)c4ccccc4-c4ccc(Cl)cc4)CC3)cc2)cc1S(=O)(=O)C(F)(F)F [AZD4320] + C[C@@H]1COCCN1C2=NC(=NC(=C2)C3(CC3)[S@](=N)(=O)C)C4=C5C=CNC5=NC=C4 [AZD6738] (first compound max 1 µM, 7x7, partner max 10 µM)
IMR-5 (Neuroblastoma)
  combination Emax: 1
[1]
  combination Emax: 0.897
[2]
  combination Emax: 0.935
[3]
  combination Emax: 0.686
[4]
  combination Emax: 0.706
GI-1 (Glioblastoma) [5]
  combination Emax: 0.982
[6]
  combination Emax: 0.608
[7]
  combination Emax: 0.781
[8]
  combination Emax: 0.611
[9]
  combination Emax: 1
[10]
  combination Emax: 0.914
EW-13 (Ewing's Sarcoma) [11]
  combination Emax: 0.887
[12]
  combination Emax: 0.692
[13]
  Bliss excess: -0.0011
NB7 (Neuroblastoma)
  Bliss excess: -0.0181
[14]
  Bliss excess: -0.0456
GI-1 (Glioblastoma) [15]
  Bliss excess: -0.0203
[16]
  Bliss excess: 0.0481
[17]
  Bliss excess: 0.0409
EW-13 (Ewing's Sarcoma) [18]
  Bliss excess: -0.0009

## CC1(C)CCC(CN2CCN(c3ccc(C(=O)NS(=O)(=O)c4ccc(NCC5CCOCC5)c([N+](=O)[O-])c4)c(Oc4cnc5[nH]ccc5c4)c3)CC2)=C(c2ccc(Cl)cc2)C1 [Venetoclax] + Cn1cnc2c(F)c(Nc3ccc(Br)cc3Cl)c(C(=O)NOCCO)cc21 [Selumetinib] (first compound max 1 µM, 7x7, partner max 3 µM)
IMR-5 (Neuroblastoma)
  combination Emax: 0.221
[1]
  combination Emax: 0.455
[2]
  combination Emax: 0.768
[3]
  combination Emax: 0.133
[4]
  combination Emax: 0.316
GI-1 (Glioblastoma) [5]
  combination Emax: 0.179
[6]
  combination Emax: 0.276
[7]
  combination Emax: 0.171
[8]
  combination Emax: 0.109
[9]
  combination Emax: 0.18
[10]
  combination Emax: 0.918
EW-13 (Ewing's Sarcoma) [11]
  combination Emax: 0.213
[12]
  combination Emax: 0.341
[13]
  Bliss excess: -0.0074
NB7 (Neuroblastoma)
  Bliss excess: -0.0252
[14]
  Bliss excess: -0.065
GI-1 (Glioblastoma) [15]
  Bliss excess: -0.0095
[16]
  Bliss excess: 0.0678
[17]
  Bliss excess: -0.0092
EW-13 (Ewing's Sarcoma) [18]
  Bliss excess: -0.0378

## CN(CCO)CC[C@H](CSc1ccccc1)Nc1ccc(S(=O)(=O)NC(=O)c2ccc(N3CCC([C@@H](O)c4ccccc4-c4ccc(Cl)cc4)CC3)cc2)cc1S(=O)(=O)C(F)(F)F [AZD4320] + CCN(CCO)CCCOc1ccc2c(Nc3cc(CC(=O)Nc4cccc(F)c4)[nH]n3)ncnc2c1 [AZD2811] (first compound max 1 µM, 7x7, partner max 1 µM)
IMR-5 (Neuroblastoma)
  combination Emax: 1
[1]
  combination Emax: 0.921
[2]
  combination Emax: 0.931
[3]
  combination Emax: 0.382
[4]
  combination Emax: 0.128
GI-1 (Glioblastoma) [5]
  combination Emax: 0.771
[6]
  combination Emax: 0.297
[7]
  combination Emax: 0.319
[8]
  combination Emax: 0.582
[9]
  combination Emax: 1
[10]
  combination Emax: 0.924
EW-13 (Ewing's Sarcoma) [11]
  combination Emax: 0.754
[12]
  combination Emax: 0.521
[13]
  Bliss excess: 0.0577
NB7 (Neuroblastoma)
  Bliss excess: 0.0258
[14]
  Bliss excess: 0.0195
GI-1 (Glioblastoma) [15]
  Bliss excess: 0.144
[16]
  Bliss excess: -0.0049
[17]
  Bliss excess: -0.0176
EW-13 (Ewing's Sarcoma) [18]
  Bliss excess: -0.0076

## Cn1cnc2c(F)c(Nc3ccc(Br)cc3Cl)c(C(=O)NOCCO)cc21 [Selumetinib] + CCN(CCO)CCCOc1ccc2c(Nc3cc(CC(=O)Nc4cccc(F)c4)[nH]n3)ncnc2c1 [AZD2811] (first compound max 10 µM, 7x7, partner max 1 µM)
IMR-5 (Neuroblastoma)
  combination Emax: 1
[1]
  combination Emax: 0.468
[2]
  combination Emax: 0.964
[3]
  combination Emax: 0.409
[4]
  combination Emax: 0.359
GI-1 (Glioblastoma) [5]
  combination Emax: 0.286
[6]
  combination Emax: 0.286
[7]
  combination Emax: 0.313
[8]
  combination Emax: 0.585
[9]
  combination Emax: 0.911
[10]
  combination Emax: 0.93
EW-13 (Ewing's Sarcoma) [11]
  combination Emax: 0.218
[12]
  combination Emax: 0.263
[13]
  Bliss excess: 0.0505
NB7 (Neuroblastoma)
  Bliss excess: 0.0229
[14]
  Bliss excess: -0.0173
GI-1 (Glioblastoma) [15]
  Bliss excess: -0.104
[16]
  Bliss excess: -0.0505
[17]
  Bliss excess: -0.0438
EW-13 (Ewing's Sarcoma) [18]
  Bliss excess: -0.0108

## CC(=O)Nc1cccc(-n2c(=O)n(C3CC3)c(=O)c3c(Nc4ccc(I)cc4F)n(C)c(=O)c(C)c32)c1 [Trametinib] + Cc1nc(-c2cn3c(n2)-c2ccc(-c4cnn(C(C)(C)C(N)=O)c4)cc2OCC3)n(C(C)C)n1 [Taselisib] (first compound max 1 µM, 7x7, partner max 10 µM)
IMR-5 (Neuroblastoma)
  combination Emax: 0.368
[1]
  combination Emax: 0.74
[2]
  combination Emax: 1
[3]
  combination Emax: 0.757
[4]
  combination Emax: 0.741
GI-1 (Glioblastoma) [5]
  combination Emax: 0.766
[6]
  combination Emax: 0.619
[7]
  combination Emax: 0.604
[8]
  combination Emax: 0.212
[9]
  combination Emax: 0.905
[10]
  combination Emax: 1
EW-13 (Ewing's Sarcoma) [11]
  combination Emax: 0.262
[12]
  combination Emax: 0.991
[13]
  Bliss excess: 0.127
NB7 (Neuroblastoma)
  Bliss excess: -0.0716
[14]
  Bliss excess: 0.067
GI-1 (Glioblastoma) [15]
  Bliss excess: 0.0885
[16]
  Bliss excess: 0.107
[17]
  Bliss excess: -0.0681
EW-13 (Ewing's Sarcoma) [18]
  Bliss excess: -0.0107

## Cc1c2c(nn1C)CSCc1cc(n(C)n1)CSc1cc(c3ccccc3c1)OCCCc1c(C(=O)O)n(C)c3c-2c(Cl)ccc13 [AZD5991] + Cc1cc2ncnn2cc1Nc1ncc2c(n1)n(C1CCOCC1)c(=O)n2C [AZD7648] (first compound max 1 µM, 7x7, partner max 10 µM)
IMR-5 (Neuroblastoma)
  combination Emax: 1
[1]
  combination Emax: 0.2
[2]
  combination Emax: 0.291
[3]
  combination Emax: 0.284
[4]
  combination Emax: 0.228
GI-1 (Glioblastoma) [5]
  combination Emax: 0.672
[6]
  combination Emax: 0.342
[7]
  combination Emax: 1
[8]
  combination Emax: 0.215
[9]
  combination Emax: 0.353
[10]
  combination Emax: 0.215
EW-13 (Ewing's Sarcoma) [11]
  combination Emax: 0.403
[12]
  combination Emax: 0.479
[13]
  Bliss excess: -0.0739
NB7 (Neuroblastoma)
  Bliss excess: -0.0079
[14]
  Bliss excess: -0.0367
GI-1 (Glioblastoma) [15]
  Bliss excess: 0.0021
[16]
  Bliss excess: 0.0017
[17]
  Bliss excess: -0.0199
EW-13 (Ewing's Sarcoma) [18]
  Bliss excess: 0.014
